Laboratory results from publication PMC11345830, “Exploration of Hydrazide-Based HDAC8 PROTACs for the Treatment of Hematological Malignancies and Solid Tumors” (Journal of Medicinal Chemistry, 2024).
Like-named read-outs stand apart in the source and are kept apart here.

Columns and labels:
[1] = biological target: T1, HDAC4 (Homo sapiens, UniProt P56524); assay: HDAC4 level in Jurkat cells, Western blot; format: cell-based; conditions: 6 h
T1 construct: endogenous in cells; host or cells: Jurkat
T1 sequence (P56524 whole entry): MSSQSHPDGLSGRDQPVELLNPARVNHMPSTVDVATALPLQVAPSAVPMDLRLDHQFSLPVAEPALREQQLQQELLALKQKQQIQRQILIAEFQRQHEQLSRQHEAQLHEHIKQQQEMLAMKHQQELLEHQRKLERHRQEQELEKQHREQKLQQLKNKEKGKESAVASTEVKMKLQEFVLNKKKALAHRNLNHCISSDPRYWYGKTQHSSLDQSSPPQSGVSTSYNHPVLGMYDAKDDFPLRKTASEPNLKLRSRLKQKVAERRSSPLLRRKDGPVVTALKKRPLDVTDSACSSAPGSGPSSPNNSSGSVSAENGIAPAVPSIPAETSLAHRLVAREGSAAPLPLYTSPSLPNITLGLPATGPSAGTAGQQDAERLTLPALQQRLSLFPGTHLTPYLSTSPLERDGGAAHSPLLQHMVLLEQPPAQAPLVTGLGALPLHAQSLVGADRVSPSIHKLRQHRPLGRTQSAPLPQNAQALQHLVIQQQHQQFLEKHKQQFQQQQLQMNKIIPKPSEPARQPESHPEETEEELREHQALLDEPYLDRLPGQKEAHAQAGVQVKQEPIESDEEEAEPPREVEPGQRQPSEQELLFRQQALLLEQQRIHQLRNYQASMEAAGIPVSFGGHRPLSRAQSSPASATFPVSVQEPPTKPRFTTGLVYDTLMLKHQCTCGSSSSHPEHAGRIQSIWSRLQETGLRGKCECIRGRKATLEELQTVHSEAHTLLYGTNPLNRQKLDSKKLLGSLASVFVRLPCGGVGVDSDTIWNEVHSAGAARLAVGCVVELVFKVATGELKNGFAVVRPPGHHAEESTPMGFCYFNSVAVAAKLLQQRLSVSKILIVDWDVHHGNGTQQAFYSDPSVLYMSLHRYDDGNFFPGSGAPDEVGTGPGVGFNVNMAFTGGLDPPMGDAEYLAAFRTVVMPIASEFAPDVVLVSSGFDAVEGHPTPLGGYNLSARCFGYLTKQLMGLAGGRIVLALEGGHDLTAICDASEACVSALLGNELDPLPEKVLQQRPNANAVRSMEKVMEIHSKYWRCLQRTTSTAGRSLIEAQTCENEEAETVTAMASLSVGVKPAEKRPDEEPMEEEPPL

[2] = biological target: T2, HDAC7 (Homo sapiens, UniProt Q8WUI4); assay: HDAC7 level in Jurkat cells, Western blot; format: cell-based; conditions: 6 h
T2 construct: endogenous in cells; host or cells: Jurkat
T2 sequence (Q8WUI4 1-952): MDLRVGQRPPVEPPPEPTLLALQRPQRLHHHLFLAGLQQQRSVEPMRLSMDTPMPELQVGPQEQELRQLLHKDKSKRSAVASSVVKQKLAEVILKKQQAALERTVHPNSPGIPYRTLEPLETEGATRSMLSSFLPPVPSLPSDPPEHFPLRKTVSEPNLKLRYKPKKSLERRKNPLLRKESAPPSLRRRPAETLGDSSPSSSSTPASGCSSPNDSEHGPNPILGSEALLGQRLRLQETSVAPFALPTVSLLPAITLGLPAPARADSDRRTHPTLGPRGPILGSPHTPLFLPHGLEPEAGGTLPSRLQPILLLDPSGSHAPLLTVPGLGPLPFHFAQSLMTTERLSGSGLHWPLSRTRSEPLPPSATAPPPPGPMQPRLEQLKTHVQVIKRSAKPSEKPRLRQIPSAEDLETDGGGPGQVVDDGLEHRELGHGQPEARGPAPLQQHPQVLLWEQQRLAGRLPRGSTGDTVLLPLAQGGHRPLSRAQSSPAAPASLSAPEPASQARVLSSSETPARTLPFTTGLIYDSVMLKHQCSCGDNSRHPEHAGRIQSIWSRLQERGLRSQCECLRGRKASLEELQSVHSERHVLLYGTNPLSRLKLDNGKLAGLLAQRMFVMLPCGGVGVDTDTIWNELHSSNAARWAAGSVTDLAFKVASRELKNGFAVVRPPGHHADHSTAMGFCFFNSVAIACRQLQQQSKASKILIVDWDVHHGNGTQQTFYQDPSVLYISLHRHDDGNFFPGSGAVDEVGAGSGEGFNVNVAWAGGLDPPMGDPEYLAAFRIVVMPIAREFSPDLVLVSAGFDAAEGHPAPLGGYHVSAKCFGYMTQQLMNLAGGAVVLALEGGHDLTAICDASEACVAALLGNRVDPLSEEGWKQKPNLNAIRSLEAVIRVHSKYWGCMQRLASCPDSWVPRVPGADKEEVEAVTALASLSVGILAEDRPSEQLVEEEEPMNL

[3] = biological target: T3, GSPT1 (Homo sapiens, UniProt P15170); assay: GSPT1 level in Jurkat cells, Western blot; format: cell-based; conditions: 6 h
T3 construct: endogenous in cells; host or cells: Jurkat
T3 sequence (P15170 whole entry): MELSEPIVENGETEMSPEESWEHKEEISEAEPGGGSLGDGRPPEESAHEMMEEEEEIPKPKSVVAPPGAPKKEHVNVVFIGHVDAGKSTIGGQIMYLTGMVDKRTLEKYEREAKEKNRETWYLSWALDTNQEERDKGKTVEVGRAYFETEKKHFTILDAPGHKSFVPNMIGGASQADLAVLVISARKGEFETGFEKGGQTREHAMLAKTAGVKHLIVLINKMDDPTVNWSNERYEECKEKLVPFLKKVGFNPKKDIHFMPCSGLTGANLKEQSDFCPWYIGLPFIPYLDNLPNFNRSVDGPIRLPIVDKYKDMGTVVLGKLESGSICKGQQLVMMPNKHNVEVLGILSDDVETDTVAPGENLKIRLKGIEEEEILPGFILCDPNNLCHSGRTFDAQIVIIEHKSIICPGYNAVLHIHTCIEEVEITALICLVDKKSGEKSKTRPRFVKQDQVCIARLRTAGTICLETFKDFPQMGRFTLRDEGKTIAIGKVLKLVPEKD

[4] = test system: acetyl-SMC3 (Ac-SMC3); assay: Ac-SMC3 level in Jurkat cells, Western blot; format: cell-based; conditions: 6 h
[5] = test system: Jurkat cells; assay: Apoptosis assay (Annexin V-FITC/PI flow cytometry), Jurkat; format: cell-based; conditions: 24 and 48 h
Protocol: The cell apoptosis assay was performed using eBioscience Annexin V-FITC/PI Apoptosis Detection Kit (Thermo Fisher Scientific, Carlsbad, CA, USA). Jurkat cells (5 × 10^5) and HCT116 cells (3 × 10^5) were treated with different concentrations of test compounds for 24 or 48 h. Cells were harvested after incubation, washed twice in cold PBS, centrifuged, and resuspended in 1X annexin-binding buffer. According to the manufacturer’s instructions, cells were incubated with Annexin V and Propidium iodide (PI) sequentially. All samples were analyzed by NovoCyte Quanteon Flow Cytometer (Agilent Technologies, CA, USA).

[6] = test system: STAT3; conditions: 24 h
From the text: We also explored a potential by-stander effect of HDAC8 degradation. It has been reported that HDAC8 can form a corepressor complex with STAT3 and release of the HDAC8 corepressor complex can recruit p300, Sp3, and other factors that activate gene transcription in colon cancer HCT116 cells.[20]

[7] = biological target: T4, HDAC6 (Homo sapiens, UniProt Q9UBN7); assay: HDAC6 level in HCT116 cells, Western blot; format: cell-based; set-up: endogenous in cells; host or cells: HCT116; conditions: 6 h
T4 sequence (Q9UBN7 1-1215): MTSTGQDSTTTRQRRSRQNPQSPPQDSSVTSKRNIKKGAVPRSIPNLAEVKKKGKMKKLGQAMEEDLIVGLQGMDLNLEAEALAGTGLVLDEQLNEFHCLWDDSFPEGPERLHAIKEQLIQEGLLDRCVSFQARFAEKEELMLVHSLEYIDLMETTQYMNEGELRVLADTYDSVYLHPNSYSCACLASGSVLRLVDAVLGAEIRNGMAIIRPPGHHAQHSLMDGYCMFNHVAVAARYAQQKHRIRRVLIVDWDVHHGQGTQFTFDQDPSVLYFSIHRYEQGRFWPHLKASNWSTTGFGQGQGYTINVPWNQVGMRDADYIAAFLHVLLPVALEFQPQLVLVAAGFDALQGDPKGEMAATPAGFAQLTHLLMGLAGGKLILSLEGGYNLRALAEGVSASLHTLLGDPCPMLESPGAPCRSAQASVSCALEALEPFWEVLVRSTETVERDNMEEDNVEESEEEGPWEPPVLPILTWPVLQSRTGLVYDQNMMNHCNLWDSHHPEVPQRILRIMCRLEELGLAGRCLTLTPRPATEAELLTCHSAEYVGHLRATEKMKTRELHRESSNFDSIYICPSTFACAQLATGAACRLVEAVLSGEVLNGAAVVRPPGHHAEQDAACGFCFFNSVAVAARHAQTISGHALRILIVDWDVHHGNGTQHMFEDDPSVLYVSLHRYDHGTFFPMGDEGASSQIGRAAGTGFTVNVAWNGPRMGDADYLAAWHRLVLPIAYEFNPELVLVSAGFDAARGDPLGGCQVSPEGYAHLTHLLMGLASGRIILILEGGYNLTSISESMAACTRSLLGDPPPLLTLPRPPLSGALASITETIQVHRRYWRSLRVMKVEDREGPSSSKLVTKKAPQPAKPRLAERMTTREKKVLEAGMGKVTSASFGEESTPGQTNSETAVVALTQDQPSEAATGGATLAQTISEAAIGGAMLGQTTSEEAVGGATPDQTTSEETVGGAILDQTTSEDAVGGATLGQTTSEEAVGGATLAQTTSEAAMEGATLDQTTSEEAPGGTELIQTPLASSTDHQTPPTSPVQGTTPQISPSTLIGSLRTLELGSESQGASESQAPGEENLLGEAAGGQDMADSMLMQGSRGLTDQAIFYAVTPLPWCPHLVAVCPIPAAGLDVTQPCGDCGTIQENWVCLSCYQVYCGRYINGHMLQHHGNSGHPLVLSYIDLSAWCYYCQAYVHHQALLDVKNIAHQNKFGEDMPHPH

SMILES: CCCCCCNNC(=O)c1ccc(CNC(=O)CN2CCC(c3ccc(NC4CCC(=O)NC4=O)cc3)CC2)cc1 (stereo not drawn) [Z16, 2-(4-(4-((2,6-Dioxopiperidin-3-yl)amino)phenyl)piperidin-1-yl)-N-(4-(2-hexylhydrazine-1-carbonyl)benzyl)acetamide]
- HDAC4 degradation (in words) [1]: no obvious
- HDAC7 degradation (in words) [2]: no obvious
- intracellular level of GSPT1 (in words) [3]: did not significantly affect
- concentration at which increased acetylation of SMC3 started [4]: around 10 nM
- concentration leading to obvious increased Ac-SMC3 [4]: 0.01 µM
- induction of apoptosis (in words) [5]: neither Z16 nor SAHA could effectively induce apoptosis
- STAT3 degradation (in words) ([6]; HCT116 cells): did not induce STAT3 degradation
- STAT3 degradation (in words) ([6]; Jurkat cells): did not induce STAT3 degradation
- impact on HDAC6 (in words) [7]: without significant impact
